Patent publication US9765039B2, “Biaryl derivatives as bromodomain inhibitors” (Zenith Epigenetics Ltd., priority 2012, dated 2017)
Where a name gives a salt, the structure may show the parent alone.

Experiments:
Brd4 bromodomain 1 = target: T1, Brd4 bromodomain 1 (Homo sapiens, UniProt O60885); assay: Inhibition of tetra-acetylated histone H4 binding to BET bromodomains (TR-FRET); design: key: Active: Compounds with an IC50 value less than 30 μM were deemed to be active.; Not Active: Compounds with an IC50 value less than 30 μM were deemed to be active; details: first bromodomain of Brd4, tetra-acetylated histone H4 peptide
T1 construct: made in house; host or cells: E. coli BL21(DE3)
Method: Proteins were cloned and overexpressed with a N-terminal 6×His tag, then purified by nickel affinity followed by size exclusion chromatography. Briefly, E. coli BL21(DE3) cells were transformed with a recombinant expression vector encoding N-terminally Nickel affinity tagged bromodomains from Brd2, Brd3, Brd4. Cell cultures were incubated at 37° C. with shaking to the appropriate density and induced overnight with IPTG. The supernatant of lysed cells was loaded onto Ni-IDA column for purification. Eluted protein was pooled, concentrated and further purified by size exclusion chromatography. Fractions representing monomeric protein were pooled, concentrated, aliquoted, and frozen at −80° C. for use in subsequent experiments.
Binding of tetra-acetylated histone H4 and BET bromodomains was confirmed by a Time Resolved Fluorescence Resonance Energy Transfer (TR-FRET) method. N-terminally His-tagged bromodomains (200 nM) and biotinylated tetra-acetylated histone H4 peptide (25-50 nM, Millipore) were incubated in the presence of Europium Cryptate-labeled streptavidin (Cisbio Cat. #610SAKLB) and XL665-labeled monoclonal anti-His antibody (Cisbio Cat. #61HISXLB) in a white 96 well microtiter plate (Greiner). For inhibition assays, serially diluted test compound was added to these reactions in a 0.2% final concentration of DMSO. Final buffer concentrations were 30 mM HEPES pH 7.4, 30 mM NaCl, 0.3 mM CHAPS, 20 mM phosphate pH 7.0, 320 mM KF, 0.08% BSA). After 2 hours incubation at room temperature, the fluorescence by FRET was measured at 665 and 620 nm by a SynergyH4 plate reader (Biotek). Illustrative results with the first bromodomain of Brd4 are shown below (Table 1). The binding inhibitory activity was shown by a decrease in 665 nm fluorescence relative to 620 nm. IC50 values were determined from a dose response curve.

hIL-6 mRNA = assay: Inhibition of hIL-6 mRNA transcription in LPS-stimulated U937 macrophages; type: cell-based, human; design: key: Active: Compounds with an IC50 value less than 30 μM are deemed to be active; details: U937 differentiated into macrophages, 1 h pretreatment, lipopolysaccharide 3 h
Method: In this example, hIL-6 mRNA in tissue culture cells was quantitated to measure the transcriptional inhibition of hIL-6 when treated with a compound of the present disclosure.
A human leukemic monocyte lymphoma cell line (U937) was plated (3.2×10^4 cells per well) in a 96-well plate in 100 μL RPMI-1640 containing 10% FBS and penicillin/streptomycin, and differentiated into macrophages for 3 days in 60 ng/mL PMA ([…]) at 37° C. in 5% CO2 prior to the addition of the compound of interest. The cells were pretreated for 1 h with the test compound prior to stimulation with […] lipopolysaccharide from Escherichia coli. The cells were incubated at 37° C. for 3 h before the cells were harvested. At time of harvest, the spent media was removed from the cells and the cells were rinsed in 200 μL PBS. Cell lysis solution (70 μL) was added the cells in each well and incubated for 5-10 min at room temperature, to allow for complete cell lysis and detachment. mRNA was then prepared using the “mRNA Catcher PLUS plate” (Invitrogen), according to the protocol supplied. After the last wash, as much wash buffer as possible was aspirated without allowing the wells to dry. Elution buffer (E3, 70 μL) was then added to each well. mRNA was then eluted by incubating the mRNA Catcher PLUS plate with Elution Buffer for 5 min at 68° C. and then immediately placing the plate on ice.
The eluted mRNA isolated was then used in a one-step quantitative real-time PCR reaction, using components of the Ultra Sense Kit together with Applied Biosystems primer-probe mixes. Real-time PCR data was analyzed, normalizing the Ct values for hIL-6 to an internal control, prior to determining the fold induction of each unknown sample, relative to the control.

Human AML MV-4-11 cells = assay: Inhibition of cell proliferation in cancer cell lines (CellTiter Aqueous One); type: cell-based; design: key: Active: Compounds with an IC50 value less than 30 μM were deemed to be active.; Not Active: Compounds with an IC50 value less than 30 μM were deemed to be active; details: 72 hours
Method: MV4-11 cells: 96-well plates were seeded with 5×10^4 cells per well of exponentially growing human AML MV-4-11 (CRL-9591) cells and immediately treated with two-fold dilutions of test compounds, ranging from 30 μM to 0.2 μM. Triplicate wells were used for each concentration, as well as a media only and three DMSO control wells. The cells and compounds were incubated at 37° C., 5% CO2 for 72 hours before adding 20 μL of the CellTiter Aqueous One Solution (Promega) to each well and incubating at 37° C., 5% CO2 for an additional 3-4 hours. The absorbance was taken at 490 nm in a spectrophotometer and the percentage of proliferation relative to DMSO-treated cells was calculated after correction from the blank well. IC50 were calculated using the GraphPad Prism software.

c-myc = assay: Inhibition of c-myc expression in cancer cell lines (mRNA, real-time PCR); type: cell-based; design: key: Active: Compounds with an IC50 value less than 30 μM were deemed to be active; details: Human AML MV4-11 cells, 3 hours
Method: MV4-11 cells (2.5×10^4 cells) were plated in 96 well U-bottom plates with test compound or DMSO (0.1%), and incubated for 3 hours at 37° C. Cells were then harvested by centrifugation, lysed, and mRNA was isolated using the mRNA catcher plus kit (Invitrogen). Reverse transcription of the mRNA and duplex amplification of the c-myc and cyclophilin cDNAs was performed using the RNA Ultrasense kit (Invitrogen) and a ViiA7 real-time PCR machine (Applied Biosystems). IC50 values were determined from a dose response curve.

Row | melting point | FRET activity (IC50 < 30 μM) (Brd4 bromodomain 1) | IL-6 activity (IC50 < 30 μM) (hIL-6 mRNA) | cell proliferation activity (IC50 < 30 μM) (Human AML MV-4-11 cells) | c-myc activity (IC50 < 30 μM) (c-myc) | SMILES
1 | 134 to 136 °C |  |  |  |  | COc1cc(OC)c2c(=O)[nH]c(-c3ccc(OCCO)c(-c4ccc(S(C)(=O)=O)cc4)n3)nc2c1 (as salt: methanesulfonate) [Example 25, 2-(5-(2-Hydroxyethoxy)-6-(4-(methylsulfonyl)phenyl)pyridin-2-yl)-5,7-dimethoxyquinazolin-4(3H)-one methanesulfonate]
2 | 218 to 220 °C |  |  |  |  | COc1cc(OC)c2c(=O)[nH]c(-c3ccc(OCCO)c(-c4cccc(S(C)(=O)=O)c4)n3)nc2c1 (as salt: methanesulfonate) [Example 36, 2-(5-(2-Hydroxyethoxy)-6-(3-(methylsulfonyl)phenyl)pyridin-2-yl)-5,7-dimethoxyquinazolin-4(3H)-one methanesulfonate]
3 | 240 to 242 °C | Active | Active |  |  | COc1cc(OC)c2c(=O)[nH]c(-c3ccc(OCCO)c(-c4ccccc4)n3)nc2c1 [Example 21, 2-(5-(2-Hydroxyethoxy)-6-phenylpyridin-2-yl)-5,7-dimethoxyquinazolin-4(3H)-one]
4 | 179 to 180 °C | Active | Active | Active | Active | COc1cc(OC)c2c(=O)[nH]c(-c3ccc(OCCNC(C)C)c(-c4ccccc4)n3)nc2c1 [Example 22, 2-(5-(2-(Isopropylamino)ethoxy)-6-phenylpyridin-2-yl)-5,7-dimethoxyquinazolin-4(3H)-one]
5 | 92 to 93 °C | Active |  |  |  | COc1cc(OC)c2c(=O)[nH]c(-c3ccc(OCCO)c(-c4ccccc4S(C)(=O)=O)n3)nc2c1 [Example 30, 2-(5-(2-Hydroxyethoxy)-6-(2-(methylsulfonyl)phenyl)pyridin-2-yl)-5,7-dimethoxyquinazolin-4(3H)-one]
6 | 226 to 228 °C | Active | Active | Not Active | Active | COc1cc(OC)c2c(=O)[nH]c(-c3ccc(OCCN4CCOCC4)c(-c4ccc(S(C)(=O)=O)cc4)n3)nc2c1.Cl [Example 31, 5,7-Dimethoxy-2-(6-(4-(methylsulfonyl)phenyl)-5-(2-morpholinoethoxy)pyridin-2-yl)quinazolin-4(3H)-one hydrochloride]
7 | 178 to 180 °C | Active | Not Active |  |  | COc1cc(OC)c2c(=O)[nH]c(-c3ccc(OCCNC(C)C)c(-c4ccccc4S(C)(=O)=O)n3)nc2c1 [Example 32, 2-(5-(2-(Isopropylamino)ethoxy)-6-(2-(methylsulfonyl)phenyl)pyridin-2-yl)-5,7-dimethoxyquinazolin-4(3H)-one]
8 | 222 to 223 °C | Active | Not Active |  |  | COc1cc(OC)c2c(=O)[nH]c(-c3ccc(OCCNC(C)C)c(-c4cccc(S(C)(=O)=O)c4)n3)nc2c1 [Example 33, 2-(5-(2-(Isopropylamino)ethoxy)-6-(3-(methylsulfonyl)phenyl)pyridin-2-yl)-5,7-dimethoxyquinazolin-4(3H)-one]
9 | 282 to 284 °C | Active | Active | Active | Active | CCS(=O)(=O)c1ccc(-c2nc(-c3nc4cc(OC)cc(OC)c4c(=O)[nH]3)ccc2OCCO)cc1 [Example 34, 2-(6-(4-(Ethylsulfonyl)phenyl)-5-(2-hydroxyethoxy)pyridin-2-yl)-5,7-dimethoxyquinazolin-4(3H)-one]
10 | 195 to 197 °C | Active | Not Active | Active | Active | CCS(=O)(=O)c1ccc(-c2nc(-c3nc4cc(OC)cc(OC)c4c(=O)[nH]3)ccc2OCCNC(C)C)cc1 [Example 35, 2-(6-(4-(Ethylsulfonyl)phenyl)-5-(2-(isopropylamino)ethoxy)pyridin-2-yl)-5,7-dimethoxyquinazolin-4(3H)-one]
11 | > 300 °C | Not Active | Not Active |  |  | COc1cc(OC)c2c(=O)[nH]c(-c3cccc(-c4ccc([S+](C)[O-])cc4)c3)nc2c1 (stereo not drawn) [Example 47, 5,7-Dimethoxy-2-(4′-(methylsulfinyl)-[1,1′-biphenyl]-3-yl)quinazolin-4(3H)-one]
12 | > 300 °C | Not Active | Active | Not Active | Not Active | COc1cc(OC)c2c(=O)[nH]c(-c3cc(-c4ccc([S+](C)[O-])cc4)cs3)nc2c1 (stereo not drawn) [Example 48, 5,7-Dimethoxy-2-(4-(4-(methylsulfinyl)phenyl)thiophen-2-yl)quinazolin-4(3H)-one]
13 | 261 to 262 °C | Active |  |  |  | C[S+]([O-])c1ccc(-c2nc(-c3nc4ccccc4c(=O)[nH]3)ccc2OCCO)cc1 (stereo not drawn) [Example 61, 2-(5-(2-Hydroxyethoxy)-6-(4-(methylsulfinyl)phenyl)pyridin-2-yl)quinazolin-4(3H)-one]
14 | > 300 °C | Active | Active |  |  | COc1cccc2nc(-c3ccc(OCCO)c(-c4ccc(S(C)(=O)=O)cc4)n3)[nH]c(=O)c12 [Example 62, 2-(5-(2-Hydroxyethoxy)-6-(4-(methylsulfonyl)phenyl)pyridin-2-yl)-5-methoxyquinazolin-4(3H)-one]
15 | 188 to 189 °C | Active |  |  |  | CC(C)NCCOc1ccc(-c2nc3ccccc3c(=O)[nH]2)nc1-c1ccc(S(C)(=O)=O)cc1 [Example 68, 2-(5-(2-(Isopropylamino)ethoxy)-6-(4-(methylsulfonyl)phenyl)pyridin-2-yl)quinazolin-4(3H)-one]
